# Tests used:
# AhR = experiment: AhR-regulated (XRE) luciferase reporter gene assay in Hepa-1 cells; type: cell-based, mouse; conditions: nanomolar concentrations, 12 h, Hepa-1 cells
# Method: Figure 1 10-Cl-BBQ is a potent AhR ligand. A) Structure of 10-Cl-BBQ. […] C) Hepa-1 cells expressing endogenous AhR were transfected with an AhR-regulated luciferase reporter gene (xenobiotic responsive element (XRE)-MMTVpromoter-Luc) and the reporter gene activity was measured after 12 h of treatment with 1 nM TCDD or the indicated concentrations of 10-Cl-BBQ. D) Alteration in proteolytic pattern of AhR by 10-Cl-BBQ. Whole cell lysate (45 µg of protein) from mouse hepatoma Hepa1c1c7 cells was incubated with 100 nM 10-Cl-BBQ or 0.1% DMSO for 1 h at RT and proteolyzed by 1 µg/ml subtilisin for 1, 2, 4, and 8 min at RT. Proteolytic cleavage products of AhR were analyzed by immunoblot. E) Electrophoretic mobility shift assay showing the ligand-stimulated binding of AhR to XRE. Whole cell lysate (18 µg of protein) from mouse hepatoma Hepa1c1c7 cells was incubated with 10 nM 10-Cl-BBQ or 0.1% DMSO for 2 h at room temperature and ^32P-labeled oligonucleotide containing XRE for 20 min at room temperature. The samples were electrophoresed on a native polyacrylamide gel and the signal was visualized by Phosphor Imager. Unlabeled competitor XRE or antibody (Ab) against AhR or Arnt was co-incubated with ^32P-labeled oligonucleotide.
# The mean luciferase activity is shown with SEM. […] 3-MC binding to AhR.
# CYP1A1 mRNA = experiment: Hepatic CYP1A1 mRNA induction after single i.p. dose; type: in vivo, C57BL/6 mice; conditions: 10 mg/kg i.p.
# Method: (§1) RNA was isolated from lymph nodes of B6D2F1 host mice with the RNeasy Mini Kit (Qiagen). cDNA was prepared from at least 1 µg RNA in a 2-step reaction using the ReactionReady First Strand cDNA synthesis kit (SA Biosciences) according to the manufacturer’s instructions and Superscript III reverse-transcriptase (Life Technologies). The qPCR reaction was carried out on an ABI PRISM 7500 Real-Time PCR system (Applied Biosystems). The reaction mixture consisted of SYBR Green/ROX qPCR Master Mix (SA Bioscience), 2–10 ng-RNA equivalent cDNA and 1 µl of the gene-specific commercial primer sets (SA Biosciences). The following conditions were used: 10 min at 95°C (1 cycle), 15 s at 95°C and 1 min at 60°C (40 cycles). The melt-curve was generated at 95°C for 15 s. The process was validated by utilizing a no-reverse-transcriptase control. The raw data was normalized to Actb and the fold-change was calculated by the ΔΔCt method using vehicle-treated sample values as the control.
# Figure 2 Pharmacokinetics of 10-Cl-BBQ. C57BL/6 mice were given 10 mg/kg 10-Cl-BBQ by i.p. injection. A) Blood was collected at the indicated times by cardiac puncture. The serum was processed to remove protein and the samples were analyzed by QTRAP 4000 LC/MS/MS. The serum concentration of 10-Cl-BBQ was determined from a standard curve based on known concentrations of 10-Cl-BBQ. B) Liver tissue was harvested and processed for mRNA analysis. CYP1A1 gene expression was determined relative to the β-actin gene, and the fold-induction was determined by the ΔΔCt method using the vehicle-treated samples as a control. The mean values are shown with SEM for 2–3 mice per time point.
# Foxp3 = experiment: Lymph node gene expression (RT-qPCR) during the GVH response; type: in vivo, B6D2F1 host mice; conditions: any dose (0.4, 2 or 10 mg/kg/day), lymph nodes, 48 h
# Method: as §1, with “The melt-curve was generated at 95°C for 15 s. The process was validated by utilizing a no-reverse-transcriptase control.” left out
# Figure 3 10-Cl-BBQ induces an AhR-dependent Treg phenotype 48 h after initiating the GVH response. […] E) In the same mice as in D, lymph nodes were harvested and analyzed for expression of genes that were previously shown to increase under the same GVH conditions with TCDD treatment (13). […] Changes in gene expression were calculated relative to the β-actin gene, and the fold-induction was calculated by the ΔΔCt method using the vehicle-treated samples as a control. * = p<0.05 relative to vehicle treatment. […]
# [1] = Serum liver chemistry profile; type: in vivo, B6D2F1 mice; conditions: 10 mg/kg/day i.p., 2 days
# Method: Supplementary file pone.0088726.s004.docx: Table S1 Serum liver chemistry profile. B6D2F1 mice were give 10 mg/kg/day of 10-Cl-BBQ or vehicle i.p. After 2 days serum was collected and analyzed. n = 5 mice per treatment, average values are shown(± standard deviation). ALT – Alanine transaminase, SGPT – serum glutamic pyruvate transaminase. (DOCX) Click here for additional data file.
# Table S1. Serum liver chemistry profile. B6D2F1 mice were give 10 mg/kg/day of 10-Cl-BBQ or vehicle i.p. After 2 days serum was collected and analyzed. n = 5 mice per treatment, average values are shown(± standard deviation). ALT – Alanine transaminase, SGPT – serum glutamic pyruvate transaminase.
smiles,measurement,setting,value
"O=c1c2cccc3cccc(c32)c2nc3ccc(Cl)cc3n12 [10-Cl-BBQ, 10-chloro-7H-benzimidazo[2,1-a]benzo[de]isoquinolin-7-one]",activation of the AhR-regulated reporter gene,AhR,activated the AhR-regulated reporter gene
same,Cyp1a1 mRNA induction in hepatic tissue,CYP1A1 mRNA; 4 hours,2 fold
same,Cyp1a1 mRNA induction in hepatic tissue,CYP1A1 mRNA; 20 hr,up to 7 fold
same,Cyp1a1 mRNA induction in hepatic tissue,CYP1A1 mRNA; 48 h,no longer apparent
same,expression of Foxp3,Foxp3,did not induce expression of Foxp3
same,acute hepatic toxicity in mice,[1],nor did it induce acute hepatic toxicity
same,ALT (SGPT),"[1]; serum, mean (± SD), n = 5",34.4 (± 10.4) U/l
same,Albumin,"[1]; serum, mean (± SD), n = 5",3.3 (± 0.1) g/dl
same,Alkaline Phosphatase,"[1]; serum, mean (± SD), n = 5",51.4 (± 8.3) U/l
same,Bilirubin,"[1]; serum, mean (± SD), n = 5",0.12 (± 0) mg/dl
same,Blood Urea Nitrogen,"[1]; serum, mean (± SD), n = 5",10.2 (± 1.5) mg/dl
same,Cholesterol,"[1]; serum, mean (± SD), n = 5",119.2 (± 10.4) mg/dl
same,Glucose,"[1]; serum, mean (± SD), n = 5",201.2 (± 10.4) mg/dl
same,Gamma Glutamyl Transferase,"[1]; serum, n = 5",0 U/l
